Test results taken from PubChem BioAssay AID489035 (Sanford-Burnham Center for Chemical Genomics, 2010).
Activity calls are given as the source filed them. How the calls were made is not given here.

System: Jurkat NF-kB reporter, TCR-induced, luciferase luminescence
Assay: T-cell NF-kB luciferase reporter inhibition – Jurkat cells, luminescence, dose response (AID 489035)

| Structure (SMILES) | IC50 |
| --- | --- |
| CCOCCCNC(=O)c1cc2c(=O)n3cccc(C)c3nc2n1C | > 80 µM (inactive) |
| CCCCCCCCCn1c2c(c(=N)c3c1CCC3)CCC2 | 7.67 µM |
| COC(=O)c1ccccc1NC(=O)CSc1nc(-c2ccco2)cc(C(F)(F)F)n1 | 72.2 µM (inactive) |
| COC(=O)C(Cc1ccc(N(CCCl)CCCl)cc1)N=Cc1ccccc1O (configuration not stated) | 0.65 µM |
| Cc1[nH]n(-c2ccccc2)c(=O)c1/C=N/Nc1nncc(-c2ccccc2)n1 | 3.32 µM |
| Cn1c2c(c(=O)n(C)c1=O)C(C(F)(F)F)(C(F)(F)F)N=C(c1ccc(Cl)cc1)N2 | > 80 µM (inactive) |
| Cc1cc(C)cc(C(=O)N2CC(=O)Nc3ccccc32)c1 | 15.7 µM |
| C[C@@H]1C=CC(=O)O[C@@H]1c1ccc(Cl)cc1 | 0.38 µM |
| COc1cc(C2C3=C(Nc4ncnn42)c2ccccc2CC3)cc(OC)c1OC (configuration not stated) | 6.79 µM |
| CC(=O)N1c2ccc(S(=O)(=O)N3CCC(C(=O)Nc4cccc(C)n4)CC3)cc2CC1C (configuration not stated) | > 80 µM (inactive) |
| Cc1ccc(C(=O)c2cc([N+](=O)[O-])ccc2N2CCCCC2)cc1C | 37 µM (inactive) |
| C/C=C(\C)C(=O)N[C@@H](c1ccccc1)[C@@H](O)C(=O)O[C@H]1C[C@@]2(O)[C@@H](OC(=O)c3ccccc3)C3[C@](C)(C(=O)[C@H](OC(C)=O)C(=C1C)C2(C)C)[C@@H](O)C[C@H]1OC[C@@]31OC(C)=O (some centres not stated) | < 0.16 µM |
| CCCCC(=O)NC(c1ccc(Cl)cc1)c1ccc2cccnc2c1O (configuration not stated) | 8.39 µM |
| O=C(/C=C/c1cccc([N+](=O)[O-])c1)n1cnc2ccccc21 | 5.79 µM |
| Cc1nn(-c2ccccc2Cl)c(Cl)c1/C=N/Nc1nc2ccccc2s1 | < 0.16 µM |
| COc1cc(Cn2c(-c3nonc3N)nc3ccccc32)ccc1C | > 80 µM (inactive) |
| COc1cccc(-c2cc(C(=O)Nc3cc(C)n(Cc4ccc(Cl)cc4)n3)no2)c1 | > 80 µM (inactive) |
| O=C1CC(c2cc(Br)ccc2F)c2cc3c(cc2N1)CCC3 (configuration not stated) | 15.6 µM |
| O=C1c2c(O)ccc(O)c2C(=O)c2c(NCCNCCO)ccc(NCCNCCO)c21 | 2.23 µM |
| COCCn1c(C)cc(C2=NNC(=Nc3ccccc3F)SC2)c1C | 64.3 µM (inactive) |
| CCOC(=O)COc1cccc2c(=O)n(CC(=O)NCc3ccc(F)cc3)ccc12 | > 80 µM (inactive) |
| COc1ccc(CNS(=O)(=O)c2cc(-c3cc(C)no3)ccc2C(C)C)cc1 | 64.6 µM (inactive) |
| Cc1ccc(C(=O)c2cc([N+](=O)[O-])ccc2N2CCOCC2)c(C)c1 | 54.5 µM (inactive) |
| CCCN(CCC)C1=CC(=[N+]2CCCC2)CC(C)(C)C1 | > 80 µM (inactive) |
| CC(C)c1ccc(/C=N/Nc2ccc(C(=O)O)cc2)cc1 | 4.63 µM |

| Structure (SMILES) | IC50 |
| --- | --- |
| COc1cc(/C=C/C(=O)c2ccc([N+](=O)[O-])o2)ccc1O | 1.86 µM |
| CCc1cc2c(=O)nc3n(c2s1)Cc1ccccc1/C3=C(/O)c1cccc([N+](=O)[O-])c1 | > 80 µM (inactive) |
| COC(=O)c1ccc(Oc2cc(C)nc(SC)n2)cc1 | > 80 µM (inactive) |
| COc1ccc(OC)c(-c2nnc3n2N=C(c2ccc(OC)c(OC)c2)CS3)c1 | 9.88 µM |
| CCOc1ccccc1NC(=O)Cn1nnc(C(=O)NCc2cccs2)c1N | > 80 µM (inactive) |
| CN(C)c1ccc(-c2nn3c(-c4ccccc4Cl)nnc3s2)cc1 | > 80 µM (inactive) |
| Cc1noc(C)c1COc1ccc(C(=O)NNC(=O)c2ccccc2F)cc1 | > 80 µM (inactive) |
| CC1(C)CC(N2CCN(C(c3ccccc3)c3ccccc3)CC2)=CC(=[N+]2CCCCC2)C1 | 15.9 µM |
| O=C(Nc1cccc(C(F)(F)F)c1)c1sc(Cl)nc1C(F)(F)F | 0.59 µM |
| CN(C)c1ccc2c(c1)OC(N)=C(C#N)C2c1cccc(F)c1 (configuration not stated) | 50.2 µM (inactive) |
| COC(=O)c1[nH]c2c(c1C)C(=O)CC(c1cccs1)C2 (configuration not stated) | > 80 µM (inactive) |
| CCCCOc1ccc(Br)cc1/C(C)=N/NC1=NCCN1 | 5.51 µM |
| Cc1csc2sc(-c3ccnc(SCC(=O)NCc4ccccc4)n3)c(C)c12 | 17 µM |
| CCOC(=O)C(C)Oc1cccc2c(=O)n(CC(=O)NCc3ccccc3)ccc12 (configuration not stated) | > 80 µM (inactive) |
| CCN(CC)S(=O)(=O)c1cc(NC(=O)CNc2cccc(S(=O)(=O)N3CCCC3)c2)ccc1C | > 80 µM (inactive) |
| COc1ccc(N/N=C/c2c(C(=O)O)ccc3ccccc23)cc1 | 16.4 µM |
| COc1ccc2c(c1)C(=O)N1[C@H]3c4cc(Br)ccc4OC[C@@H]3[C@H](c3ccccc3)[C@]1(C)C(=O)N2 | > 80 µM (inactive) |
| CC(C)c1oc(=O)cc2c1[C@@H](O)[C@H]1OC(=O)[C@@]3(C)CC[C@@H](O)[C@@]2(C)C13 (some centres not stated) | 2.54 µM |
| Cc1cccc(N2CCN(C(=O)c3ccc4[nH]c(C)c(C)c4c3)CC2)c1C | > 80 µM (inactive) |
| Cc1noc(C)c1COc1cccc(C(=O)OCC(=O)N2CC(=O)Nc3ccccc32)c1 | > 80 µM (inactive) |
| COc1ccc(CC(=O)Nc2nc(-c3ccc(F)c(F)c3)cs2)cc1OC | 22.4 µM (inactive) |
| Clc1ccc2c(c1)C(C1=NCCN1)c1ccccc1CS2 (configuration not stated) | 58.5 µM (inactive) |
| COc1ccccc1N1CCN(C(=O)C2c3ccccc3Oc3ccccc32)CC1 | 57.2 µM (inactive) |
| COc1cc(OC)c(/C=C2\C(=O)Nc3ccccc32)c(OC)c1 | 18.4 µM |
| COc1ccc(C2=Nn3c([n+](C)c4ccccc43)SC2)cc1 | > 80 µM (inactive) |

| Structure (SMILES) | IC50 |
| --- | --- |
| CC1=CC(C)(C)N(S(=O)(=O)c2ccc(C)cc2)c2cc(C)ccc21 | 6.77 µM |
| CC(Oc1ccc(Cl)cc1Cl)c1nc(-c2ccc(NC(=O)c3ccncc3)cc2)no1 (configuration not stated) | > 80 µM (inactive) |
| Cc1ccc(Nc2nc(-c3c(C)nc4ccccn34)cs2)cc1 | 24.6 µM (inactive) |
| Cc1ccnc2c1ccc1c(C)ccnc12 | 2.42 µM |
| Cc1ccc(/C=C/c2ccc(N(C)C)cc2)[n+](C)c1 | > 80 µM (inactive) |
| COC(=O)c1[nH]c2ccc(F)cc2c1NS(=O)(=O)c1ccc(OC)cc1 | > 80 µM (inactive) |
| COc1ccccc1C1=NOC(COc2ccc3c(C)cc(=O)oc3c2)C1 (configuration not stated) | > 80 µM (inactive) |
| O=C(COc1ccccc1-c1ccccc1)N/N=C/c1cccc2ccccc12 | < 0.16 µM |
| COc1ccc(CS(=O)(=O)/C(Cl)=C(/Cl)C(=O)Nc2ccc(OC)nc2)cc1 | 0.45 µM |
| COc1ccc(Nc2ncnc3ccc(Br)cc23)c(OC)c1 | 22 µM (inactive) |
| CC(C)Nc1ccc(C(CC(N)=O)NC(=O)c2ccc(Br)cc2)cc1[N+](=O)[O-] (configuration not stated) | 4.05 µM |
| CCC/C(O)=C1\C(=O)CC(C)(C)CC1=Nc1ccc(OC)cc1OC | > 80 µM (inactive) |
| COc1ccc(/C=N/NC(=O)COc2ccccc2-c2ccccc2)cc1 | 37.9 µM (inactive) |
| Cc1ccc(Oc2ccc(OCC(=O)Nc3ccncc3)cc2)cc1 | 19.3 µM |
| CCOc1ccccc1NC(=O)Cn1nnc(C(=O)NCc2ccco2)c1N | > 80 µM (inactive) |
| Cc1ccc(-c2cc(C(F)F)n3ncc(C(=O)N4CCc5ccccc54)c3n2)cc1 | > 80 µM (inactive) |
| COc1cccc(N2CCN(C(=O)c3ccc(CS(=O)c4ccccc4Cl)o3)CC2)c1 (configuration not stated) | > 80 µM (inactive) |
| COc1cc(C2=NOC(C(=O)NCc3ccc(F)cc3)C2)cc(OC)c1OC (configuration not stated) | 6.16 µM |
| CCCOc1ccc(/C=N/Nc2cc(N3CCOCC3)ncn2)c(O)c1 | 10 µM |
| CCOC(=O)c1ccccc1NC(=O)Cn1c(-c2nonc2N)nc2ccccc21 | > 80 µM (inactive) |
| COc1ccc(Cn2c(SCc3ccc(C)cc3)nc3cc(OC)c(OC)cc3c2=N)cc1Cl | 3.51 µM |
| CCOc1ccc(S(=O)(=O)N2c3ccccc3CC2C)cc1 (configuration not stated) | 8.42 µM |
| O=S1(=O)C=C(Sc2nc3cc(Cl)ccc3o2)c2ccccc21 | < 0.16 µM |
| O=c1cc(-c2ccccc2)[nH]c2ccccc12 | > 80 µM (inactive) |
| COc1ccc(CNC(=O)c2c(C)oc3c2C(=O)c2ccccc2C3=O)cc1 | 8.08 µM |

| Structure (SMILES) | IC50 |
| --- | --- |
| Cc1ccc2c(c1)sc(-c1ccc(N(C)C)cc1)[n+]2C | > 80 µM (inactive) |
| Cc1ccc2[nH]c3c(c2c1)CCCC3NC(=O)CCl (configuration not stated) | 0.32 µM |
| Cc1ccsc1/C=N/NC(=O)c1cc(-c2ccncc2)nc2ccccc12 | 35.1 µM (inactive) |
| Cc1ccc(/C=N/NC(=O)c2c(C)nc3ccc(Br)cn23)cc1 | > 80 µM (inactive) |
| CCOc1ccccc1C(=O)Nc1ccc2nc(N3CCN(c4ncccn4)CC3)cc(C)c2c1 | 4.28 µM |
| O=C1/C(=C/c2ccc(N3CCOCC3)o2)SC(=Nc2ccccc2)N1CCc1c[nH]c2ccccc12 | 18.3 µM |
| COc1ccc(NS(=O)(=O)c2ccc(-c3cnc(C4CC4)o3)cc2)cc1OC | > 80 µM (inactive) |
| COc1ccc(Br)cc1/C(C)=N/NC1=NCCN1 | > 80 µM (inactive) |
| Cc1cccc(N=Nc2ccc(O)c3ncccc23)c1 | 6.14 µM |
| Cn1nc(CC(=O)Nc2ccc(N3CCN(C(=O)OC(C)(C)C)CC3)cc2)c2ccccc2c1=O | > 80 µM (inactive) |
| CC1=C(C(=O)OCc2ccc3c(c2)OCO3)C(c2ccc(Cl)cc2)NC(=O)N1 (configuration not stated) | 0.63 µM |
| Cc1ccc(C(=O)O/N=C(\N)c2ccccn2)c(C)c1 | 0.42 µM |
| Cc1ccc(-c2cc(-c3ccc(C)cc3)[n+](-c3ccccc3)c(-c3ccc(C)cc3)c2)cc1 | 6.13 µM |
| Cc1c(C(=O)N/N=C/c2ccc(Cl)cc2)[nH]c2ccc(Cl)cc12 | > 80 µM (inactive) |
| Cc1cccc(N2CCN(C(=O)c3ccc(CS(=O)(=O)c4ccccc4C)o3)CC2C)c1 (configuration not stated) | 9.62 µM |
| CCOC(=O)CSC1=C(C#N)C(c2ccc(C)s2)CC(=O)N1 (configuration not stated) | > 80 µM (inactive) |
| Cc1csc2ncnc(NC3CCN(Cc4ccccc4)CC3)c12 | > 80 µM (inactive) |
| Cc1nc(SCC(=O)Nc2nc3ccccc3s2)c(C#N)c(C)c1C | 0.75 µM |
| COc1ccccc1N=C(C)C1=C(O)CC(c2ccccc2)CC1=O (configuration not stated) | > 80 µM (inactive) |
| CC(=O)O[C@@]12CO[C@@H]1C[C@H](O)[C@@]1(C)C(=O)[C@H](O)C3=C(C)[C@@H](OC(=O)[C@H](O)[C@@H](NC(=O)c4ccccc4)c4ccccc4)C[C@@](O)([C@@H](OC(=O)c4ccccc4)C12)C3(C)C (some centres not stated) | 39.4 µM (inactive) |
| Cc1ccc(C[n+]2c(-c3ccc(C)cc3)cc(-c3ccc(C)cc3)cc2-c2ccc(C)cc2)cc1 | 2.35 µM |
| CC/C=C/CC(=O)N[C@@H](c1ccccc1)[C@@H](O)C(=O)O[C@H]1C[C@@]2(O)[C@@H](OC(=O)c3ccccc3)C3[C@](C)(C(=O)[C@H](OC(C)=O)C(=C1C)C2(C)C)[C@@H](O)C[C@H]1OC[C@@]31OC(C)=O (some centres not stated) | > 80 µM (inactive) |
